Experiment [1] concerns Escherichia coli. As to the kind of experiment: Antimicrobial activity Escherichia coli DH5alpha harboring bacteriophage T4 plasmid alpha omega by agar macrodilution method. The experiment is classed as functional.
In experiment [2] the test system is Escherichia coli. Briefly: Antimicrobial activity Escherichia coli DH5alpha expressing metallo-beta-lactamase VIM-11 by agar macrodilution method. The format is functional.
The test system of experiment [3] is Escherichia coli. As to the kind of experiment: Antimicrobial activity Escherichia coli DH5alpha expressing beta lactamase VIM-2 by agar macrodilution method. The experiment is classed as functional.
In the next experiment the test system is Pseudomonas aeruginosa. Briefly: Ratio of Kcat to Km for Pseudomonas aeruginosa COL-1 metallo-beta lactamase VIM-2 over Kcat to Km for Pseudomonas aeruginosa M5109 metallo-beta-lactamase VIM-11.
The test system of experiment [4] is Escherichia coli. As to the kind of experiment: Activity at Escherichia coli DH5alpha metallo-beta-lactamase VIM-11 assessed as compound hydrolysis per mg of total periplasmic protein by spectrometry.
Experiment [5] deals with Metallo-beta-lactamase (Escherichia coli) (UniProt Q5U7L7). As to the kind of experiment: Activity at Escherichia coli DH5alpha metallo-beta-lactamase VIM-2 assessed as compound hydrolysis per mg of total periplasmic protein by spectrometry.

Converted amounts (≈) assume the structure as drawn.

As for `CC1(C)S[C@@H]2[C@H](NC(=O)[C@H](N)c3ccccc3)C(=O)N2[C@H]1C(=O)O` [AMPICILLIN], the MIC in the experiment with Escherichia coli [1] turned out to be 8 µg/mL (≈ 22.9 µM); with Escherichia coli [2] it was 64 µg/mL (≈ 183 µM); with Escherichia coli [3] it was 256 µg/mL (≈ 733 µM). In the experiment with Pseudomonas aeruginosa, the kcat/Km ratio is 0.81.
The corresponding values for `CO/N=C(\C(=O)N[C@@H]1C(=O)N2C(C(=O)[O-])=C(C[n+]3cccc4c3CCC4)CS[C@H]12)c1csc(N)n1` [CEFPIROME] are 0.015 µg/mL (≈ 0.0291 µM), 0.5 µg/mL (≈ 0.972 µM), 0.25 µg/mL (≈ 0.486 µM) and 2.
As for `CC(C)(O/N=C(\C(=O)N[C@@H]1C(=O)N2C(C(=O)[O-])=C(C[n+]3ccccc3)CS[C@H]12)c1csc(N)n1)C(=O)O` [CEFTAZIDIME], the MIC with Escherichia coli [1] is 0.125 µg/mL (≈ 0.229 µM); in the experiment with Escherichia coli [2], 8 µg/mL (≈ 14.6 µM); against Escherichia coli [3], 8 µg/mL (≈ 14.6 µM). The kcat/Km ratio in the experiment on Pseudomonas aeruginosa amounted to 4.06. In addition, the values for the Activity (with Escherichia coli [4]; in experiment [5]) were 0.9 µmol and 5.5 µmol, respectively.
Regarding `CC(=O)OCC1=C(C(=O)O)N2C(=O)[C@@H](NC(=O)Cc3cccs3)[C@H]2SC1` [CEPHALOTHIN], the MIC in the experiment on Escherichia coli [1] came to 4 µg/mL (≈ 10.1 µM); against Escherichia coli [2], 64 µg/mL (≈ 161 µM); in the experiment with Escherichia coli [3] it was 64 µg/mL (≈ 161 µM). Further, in the experiment on Pseudomonas aeruginosa, the kcat/Km ratio worked out at 1.12. The Activity with Escherichia coli [4] is 5.4 µmol; in experiment [5] it was 141 µmol.
`C[C@@H](O)[C@H]1C(=O)N2C(C(=O)O)=C(SCCNC=N)C[C@H]12` [IMIPENEM ANHYDROUS]: the MIC against Escherichia coli [2] was found to be 0.5 µg/mL (≈ 1.67 µM); against Escherichia coli [3], 1 µg/mL (≈ 3.34 µM). Further, the kcat/Km ratio with Pseudomonas aeruginosa stood at 0.67. In addition, the Activity came to 1.3 µmol in the experiment on Escherichia coli [4] and 27 µmol in experiment [5].
`CO/N=C(\C(=O)N[C@@H]1C(=O)N2C(C(=O)[O-])=C(C[N+]3(C)CCCC3)CS[C@H]12)c1csc(N)n1`: the MIC against Escherichia coli [2] and against Escherichia coli [3] was 0.5 µg/mL (≈ 1.04 µM) each time. The kcat/Km ratio in the experiment on Pseudomonas aeruginosa came to 2.9.
As to `CO[C@@]1(NC(=O)Cc2cccs2)C(=O)N2C(C(=O)O)=C(COC(N)=O)CS[C@@H]21` [CEFOXITIN], the results for the MIC in the experiment with Escherichia coli [1], with Escherichia coli [2] and in the experiment on Escherichia coli [3] were 4 µg/mL (≈ 9.36 µM), 32 µg/mL (≈ 74.9 µM) and 64 µg/mL (≈ 150 µM), respectively. Besides, the kcat/Km ratio in the experiment on Pseudomonas aeruginosa worked out at 0.86.
As for `C[C@H]1[C@H](NC(=O)/C(=N\OC(C)(C)C(=O)O)c2csc(N)n2)C(=O)N1S(=O)(=O)O` [AZTREONAM], the MIC against Escherichia coli [2] and against Escherichia coli [3] was 0.5 µg/mL (≈ 1.15 µM) in each case.

For the origin of these results see ChEMBL document CHEMBL1255351, “Biochemical characterization of metallo-beta-lactamase VIM-11 from a Pseudomonas aeruginosa clinical strain” (2008).
